Laboratory results as given in patent US20240165196A1, “Beta-Lactamase Inhibitors” (VIB VZW, priority 2021, published 2024).

Key:
SHV-11 = biological target: T1, SHV-11 (Klebsiella pneumoniae, UniProt P0AD64); assay: thermal denaturation with light scattering (aggregation) in presence of excess tazobactam; type: biochemical; conditions: SHV-11, excess of tazobactam
T1 construct: DNA TEM (870 bp) or SHV (894 bp) were each sub-cloned into a PUC57 vector cloning site NdeI/XhoI; His-tag (N); TEV cleavage site (N); made in house; host or cells: E. coli BL21 (DE3)
T1 sequence (P0AD64 22-286 L31Q): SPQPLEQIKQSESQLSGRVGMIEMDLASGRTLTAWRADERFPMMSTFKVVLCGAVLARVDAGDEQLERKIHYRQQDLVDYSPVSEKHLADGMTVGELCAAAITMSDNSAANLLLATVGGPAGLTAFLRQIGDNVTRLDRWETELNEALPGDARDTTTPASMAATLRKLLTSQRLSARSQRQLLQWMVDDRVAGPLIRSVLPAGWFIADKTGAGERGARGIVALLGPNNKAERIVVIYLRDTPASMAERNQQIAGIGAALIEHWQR

[1] = test system: uro-pathogenic E. coli strain (UPEC strain blaTEM-1); assay: mouse Urinary Tract Infection (UTI) model; type: in vivo; conditions: 30 mg/kg ampicillin plus 10 mg/kg test substance; 24 h
Protocol: FIGS. 4A-4K. […] IV—Intravenous, IP—Intraperitoneal, SC—Subcutaneously. The data shown is from a single experiment with 4 animals per group. […] (ns—non significant, #—P>0.05, *—P≤0.05, ***—P≤0.01, ****—P≤0.001). (FIG. 4G) FICI plot as in FIG. 2, for the E. coli strains indicated and the combination of penicillin and the TEM3.2 peptide. […] (FIG. 4J) Same as FIG. 4H for peptide BGAL. (FIG. 4K) Same as FIG. 4H for peptide P33.
Vehicle alone (0.9% NaCl) was also administered (IV).
To test the efficacy of the peptides, urinary tract infection model was performed as described previously^65. Briefly, female C57BL/6Jax mice female mice were deprived from water for at least one hour. […] Mice were slowly inoculated urethrally with 50 μL of a bacterial suspension slowly (10^8 CFU/mouse) using a sterile catheter (The plastic intravenous cannula of the paediatric intravenous-access cannula (GS391350) in the bladder over 5 s in order to avoid vesicoureteral reflux. The catheter was then removed directly after inoculation. After surgery, the animals were visually monitored for full recovery. After 1 h post-inoculation, all mice received ampicillin (30 mg/kg_PO-orally) and at the same time 3 groups of animals received the peptides via different administration routes (10mg/kg_IV—Intravenous; IP—Intraperitoneal or SC—sub-cutaneous) and the positive control groups received tazobactam (10 mg/Kg, PO). […]

[2] = test system: TEM variants (TEM15, TEM30, TEM52, TEM10, TEM155); assay: aggregation (RALS temperature ramp) of recombinant TEM variants in presence and absence of tazobactam; type: biochemical; conditions: presence versus absence of tazobactam
Text: FIGS. 2A-2M. (FIG. 2A) TEM mutations and their effects on stability (total energy) as predicted by FoldX. […] Dashed line indicates a total energy difference of 0.5 kcal/mol, the FoldX cut-off above which mutations are considered to be destabilizing. (FIG. 2B) Barplot mapping mutations in (FIG. 2A) to the TEM sequence and indicating occurrence. […] The bar heights correspond to the number of times a mutation occurs across different TEM variants (right-hand y-axis). The color coding is identical to that in (FIG. 2A). Red line indicates the TANGO scores (indicated on the left-hand y-axis), with peaks corresponding to APRs. (FIG. 2C) Mapping of mutations in (FIG. 2A) and (FIG. 2B) to the TEM structure (pdb 1xpb). Protein surface is shown in gray, color coding of mutations is identical to (FIG. 2A) and (FIG. 2B). (FIGS. 2D, 2E, and 2F) Temperature-dependent evolution of the Right-Angle Light Scattering (RALS) intensity during a temperature ramp, similar as in FIG. 1F for key mutants of TEM1, namely TEM-10 (FIG. 2D), TEM-30 (FIG. 2E) and TEM-155 (FIG. 2F). Experiments were shown in triplicate, single repeat is shown. (FIG. 2G) Schematic representation of the structure of the peptides. APR—Aggregation Prone Region, R—Arginine. (FIG. 2H) Ribbon representation of the superposition of the crystal structures of TEM (green, pdb id 1bt5) and SHV (blue, pdb id 1shv). […]

E. coli strain UZ_TEM104 = type: cell-based; conditions: additive at fixed 50 μg/mL
TEM-1 = biological target: T2, TEM-1 (Escherichia coli, UniProt P62593); assay: thermal denaturation with right-angle/static light scattering (aggregation) in presence of beta-lactamase inhibitors; type: biochemical, E. coli
T2 construct: DNA TEM (870 bp) or SHV (894 bp) were each sub-cloned into a PUC57 vector cloning site NdeI/XhoI; His-tag (N); TEV cleavage site (N); made in house; host or cells: E. coli BL21 (DE3)
T2 sequence (P62593 24-286 limits assumed): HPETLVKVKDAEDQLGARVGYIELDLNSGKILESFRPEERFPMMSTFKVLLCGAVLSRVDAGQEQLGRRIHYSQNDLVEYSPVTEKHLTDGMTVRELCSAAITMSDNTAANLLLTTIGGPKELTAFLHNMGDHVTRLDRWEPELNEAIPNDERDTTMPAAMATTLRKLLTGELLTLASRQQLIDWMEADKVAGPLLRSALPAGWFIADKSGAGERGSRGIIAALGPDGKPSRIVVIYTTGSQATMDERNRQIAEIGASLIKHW
Text: (FIG. 1E) Heat denaturation of TEM-1 monitored by intrinsic fluorescence plotted as the BaryCentric Mean (BCM) of the fluorescence emission spectrum in the presence (red) and absence (blue) of tazobactam. […] (FIG. 1F) Temperature-dependent evolution of the Right-Angle Light Scattering (RALS) intensity measured simultaneously with the data in FIG. 1G to monitor protein aggregation. […] (FIGS. 1G, 1H, 1I, and 1J) Same data as in FIG. 1F, but showing a dose-titration of different beta-lactamase inhibitors: tazobactam (FIG. 1G), clavulanate (FIG. 1H), vaborbactam (FIG. 1I) and avibactam (FIG. 1J). Each curve a single experiment, which was repeated in triplicate.
Then, we performed a thermal denaturation whilst simultaneously monitoring the intrinsic fluorescence as a measure of the folding status of the molecule (FIG. 1E), and the static light scattering as a measure of aggregation (FIG. 1F).

With `C[C@]1(Cn2ccnn2)[C@H](C(=O)O)N2C(=O)C[C@H]2S1(=O)=O` [tazobactam] the “aggregation onset temperature Tagg” value (SHV-11) was “increase”, the “best reduction of the bacterial load (up to)” value [1] was 1.8 log folds and the “effect of tazobactam on aggregation of TEM variants” value [2] was “pharmacological chaperone effect”. The “reduction of the MIC of penicillin G” value (E. coli strain UZ_TEM104) was 4 fold, the “aggregation of the enzyme (static light scattering), dose-response” value (TEM-1; TEM-1, dose titration of inhibitor) was “reduce the aggregation of the enzyme in a dose-responsive manner” and the “aggregation onset temperature Tagg” value (TEM-1; TEM-1, excess of tazobactam, more marked than for SHV-11) was “increase”.
